From patent US20200246465A1, “USE OF TRYPTOPHAN DERIVATIVES FOR PROTEIN FORMULATIONS” (Genentech, Inc., priority 2015, published 2020)
Several values for one entry are separate records, joined by “and”; a condition that tells them apart may be missing. Equal values may be shown once.

What was measured:
[1] = AAPH stress of proteins with or without NAT, site-specific Trp oxidation by LC-MS tryptic peptide mapping; assay type: physicochemical; details: Mab2 W53 and W106, Mab4 W52, Mab1 W103, Mab6 W103/104; 1 mM AAPH; NAT 0.05-1 mM
Procedure: Proteins Mab1, Mab2, and Mab3/Mab4 were dialyzed into a sodium acetate buffer (20 mM sodium acetate pH 5.5) and Mab5/Mab6 was dialyzed into a histidine-based buffer (20 mM histidine hydrochloride pH 5.5). Protein solutions were diluted to a final concentration of 1 mg/mL protein in the corresponding buffer and 1 mM 2,2′-Azobis(2-amidinopropane) dihydrochloride (AAPH) was added. N-acetyl-Trp (NAT) was added from a concentrated stock solution to each protein solution at concentrations from 0 to 5 mM. Samples were incubated at 40° C. for 16 hours followed by quenching with methionine and buffer exchange to the initial dialysis buffer plus 100 mM sucrose.
Site-specific modifications of AAPH-stressed samples of Mab2, Mab1, and Mab3/Mab4 were monitored using a microscale tryptic peptide digest followed by liquid chromatography-mass spectrometry (LC-MS) (Anderson, N. et al., Nov. 20, 2014, American Pharmaceutical Review). […]
Peptide mapping of each digested sample was performed on a Waters Acquity H-Class UHPLC coupled to a Thermo Q Exactive Plus high resolution mass spectrometry system (HRMS). […] Column effluent was monitored at 214 nm. […] The oxidation level at each site was determined by extracted ion chromatography (EIC) using the Thermo XCalibur biopharmaceutical characterization software. […]

[2] = AAPH oxidation stress of NAT in formulation buffer, RP-HPLC at 240 nm; assay type: physicochemical; details: for % NAT degradation ± 1SD: AAPH stress (1.0 mM AAPH, 40° C. 16 hours)
Procedure: AAPH (Calbio Chem, 99.8%) was used to model oxidative degradation by alkyl peroxides. Histidine and non-histidine buffers at pH 5.5 containing 0.3 mM NAT ±5 mM L-Met pH 5.5 were treated with an aqueous AAPH solution to a final concentration of 1.0 mM AAPH. An equivalent volume of Milli-Q H2O was added to control samples. Samples were incubated at 40° C. for 16 hours. Oxidation was quenched by the addition of L-Met to a final concentration of 20 mM. After the addition of the quenching solution, the final NAT concentration was 0.2 mM. NAT and NAT degradants were separated on an Agilent 1200 series HPLC or Waters H Class UPLC using an Agilent ZORBAX SB-C18 3.5 μm, 4.6×75 mm reverse phase column. Column temperature was held at 30±0.8° C. by a thermostat controller. The gradients used for HPLC and UPLC are listed in Tables 5 and 6, respectively (note: the shorter gradient on the UPLC was designed to accommodate earlier retention times and the column re-equilibration period was elongated due to the larger range of system pressure at a flow rate of 1.0 ml/min). NAT degradation products were detected at 240 nm. The standard bandwidth setting (8 nm for Agilent 1200 HPLC, 4.8 nm for Waters H-Class) was used for analysis on each instrument. The autosampler was maintained at 5±3° C. 10 nmol of NAT and/or NAT degradants (50 μl for most samples) was injected on to the column for analysis. The chromatograms were processed using Dionex Chromeleon software. Protein-containing samples were diluted in guanidine and the proteins removed via ultra-filtration (Amicon spin filters with a 30 kDa molecular weight cut-off). […] Using the final sample preparation conditions, recovery of NAT was 94-99% for three tested antibody/antibody derivatives and recovery of NAT degradants was 98-100% (data not shown). […] Total NAT degradation for each sample was calculated by comparing NAT peak area to the control sample for each stress model (Table 7). NAT degradation ranged from 3% (thermal stress, non-His buffer) to 83% (ICH light stress, His buffer). The impact of low concentrations of protein on AAPH-induced NAT degradation was also analyzed. Two antibodies (protein1 and protein2) were diluted to 1.0 mg/ml in buffer and formulated with 0.3 mM NAT (˜45:1 mol NAT:mol protein). Upon AAPH stress, the level of NAT degradation was largely consistent between protein-containing and protein-free solutions (˜40% loss in NAT peak area), as was the distribution of oxidant species (FIG. 11).

improvement to NAT stability by 5 mM Met (total NAT loss) ([2]; AAPH model, depending on buffer): 4-8%
% NAT degradation ± 1SD ([2]; His + 5 mM Met buffer, 0.3 mM NAT): 34.7 ± 0.1 (n = 3) %
% NAT degradation ± 1SD ([2]; His buffer pH 5.5, 0.3 mM NAT): 39.8 ± 0.2 (n = 3) %
% NAT degradation ± 1SD ([2]; Non-His + 5 mM Met buffer, 0.3 mM NAT): 32.9 ± 0.5 (n = 3) %
% NAT degradation ± 1SD ([2]; Non-His buffer pH 5.5, 0.3 mM NAT): 41.1 ± 0.7 (n = 3) %
NAT degradation (loss) ([2]; AAPH stress, under all tested conditions): 30-40% and 33-41%
loss in NAT peak area ([2]; AAPH stress, 0.3 mM NAT in histidine-based buffer, protein-free or with 1.0 mg/ml protein1 or protein2): ~40%
Compound: CC(=O)N[C@@H](Cc1c[nH]c2ccccc12)C(=O)O [NAT, N-acetyl-tryptophan]
NAT protection from AAPH-induced oxidation of oxidation-prone tryptophan residues [1]: able to protect each tested residue from oxidation
